Results: publication PMC5681660, “Reduced hepatitis B and D viral entry using clinically applied drugs as novel inhibitors of the bile acid transporter NTCP” (Scientific Reports, 2017)
Where a name gives a salt, the structure may show the parent alone.

Target: T1, human NTCP (Homo sapiens, UniProt Q14973)
T1 sequence (Q14973 1-349): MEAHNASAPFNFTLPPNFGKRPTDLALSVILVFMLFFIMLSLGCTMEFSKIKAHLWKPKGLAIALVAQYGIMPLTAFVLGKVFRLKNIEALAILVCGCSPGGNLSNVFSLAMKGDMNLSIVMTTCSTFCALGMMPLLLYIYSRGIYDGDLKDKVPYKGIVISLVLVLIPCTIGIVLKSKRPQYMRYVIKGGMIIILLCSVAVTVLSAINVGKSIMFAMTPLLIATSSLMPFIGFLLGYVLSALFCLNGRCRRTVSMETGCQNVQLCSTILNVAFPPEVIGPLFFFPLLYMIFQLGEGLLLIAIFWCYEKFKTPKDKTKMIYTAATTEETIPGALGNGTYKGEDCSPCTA
Test: Screening taurocholate uptake assay (96-well, [14C]taurocholate, 10 µM drug)
Conditions: for B-score functional assay: screening taurocholate uptake, 10 µM drug

[1] = ranking over the functional and the binding screening assay
[2] = combined ranking of functional and binding screening assays

Compound | Ranking score [1] | B-score functional assay | Ranking score [2] | B-score functional assay (B-score) | Ranking score (ranking score beside the functional and binding assay B-scores of the screen)
CNC[C@H](O)[C@@H](O)[C@H](O)[C@H](O)CO [Meglumine] | 72.6498 | -3.271 | – | – | –
C[N+]1(C)CCCC(OC(=O)C(O)(c2ccccc2)c2ccccc2)C1 (stereo not shown) [Mepenzolate bromide] | – | 1.196 | 545.72 | – | –
Cc1cccc(C)c1NC(=O)C1CCCCN1C (stereo not shown) [Mepivacaine hydrochloride] | 206.427 | -0.918 | – | – | –
CCC1(c2cccc(O)c2)CCCCN(C)C1 (stereo not shown) [Meptazinol hydrochloride] | – | -1.3 | 474.66 | – | –
O=C([O-])c1ccccc1-c1c2cc(Br)c(=O)cc-2oc2[c]([Hg+])c([O-])c(Br)cc12.[Na+].[Na+].[OH-] [Merbromin] | 82.365 | -0.374 | – | – | –
O=S(=O)(O)CCS [Mesna] | 127.75 | -1.329 | – | – | –
C[C@H](N)[C@H](O)c1cccc(O)c1 [Metaraminol bitartrate] | 141.58 | 0.952 | – | – | –
CN1C[C@H](CNC(=O)OCc2ccccc2)C[C@@H]2c3cccc4c3c(cn4C)C[C@H]21 [Metergoline] | 269.388 | -0.571 | – | – | –
CC(=O)OC(C)C[N+](C)(C)C (stereo not shown) [Methacholine chloride] | – | 0.496 | 628.097 | – | –
C=C1c2cccc(O)c2C(=O)C2=C(O)[C@]3(O)C(=O)C(C(N)=O)=C(O)[C@@H](N(C)C)[C@@H]3[C@@H](O)[C@H]12 [Methacycline hydrochloride] | 244.434 | 0.118 | – | – | –
CC[N+](C)(CC)CCOC(=O)C1c2ccccc2Oc2ccccc21 [Methantheline bromide] | – | -0.025 | 536.517 | – | –
COC(=O)Nc1nc2ccc(SC(C)C)cc2[nH]1 [Methiazole] | 275.739 | -0.825 | – | – | –
COc1ccccc1OCC(O)COC(N)=O (stereo not shown) [Methocarbamol] | – | -0.493 | 504.159 | – | –
COc1ccc(OC)c(C(O)C(C)N)c1 (stereo not shown) [Methoxamine hydrochloride] | – | -0.662 | 647.236 | – | –
CN1CCCC(CC2c3ccccc3Sc3ccccc32)C1 (stereo not shown) [Metixene hydrochloride] | – | 0.08 | 516.538 | – | –
CCN(CC)CCNC(=O)c1cc(Cl)c(N)cc1OC.Cl [Metoclopramide monohydrochloride] | – | – | 1141.61 | 0.859 | –
Cc1cccc(C)c1OCC(C)N (stereo not shown) [Mexiletine hydrochloride] | – | -0.898 | 487.63 | – | –
Clc1ccc(COC(Cn2ccnc2)c2ccc(Cl)cc2Cl)c(Cl)c1 (stereo not shown) [Miconazole] | 240.998 | -2.763 | – | – | –
CC#C[C@]1(O)CC[C@H]2[C@@H]3CCC4=CC(=O)CCC4=C3[C@@H](c3ccc(N(C)C)cc3)C[C@@]21C [Mifepristone] | 246.499 | -2.267 | – | – | –
OCCN1C[C@H](O)[C@@H](O)[C@H](O)[C@H]1CO [Miglitol] | – | -1.145 | 510.427 | – | –
Nc1cc(N2CCCCC2)nc(N)[n+]1[O-] [Minoxidil] | 87.241 | -3.894 | – | – | –
CN1CCN2c3ncccc3Cc3ccccc3C2C1 (stereo not shown) [Mirtazapine] | – | 0.174 | 576.426 | – | –
NC(=O)C[S+]([O-])C(c1ccccc1)c1ccccc1 (stereo not shown) [Modafinil] | – | 2.253 | 485.699 | – | –
CCOC(=O)[N-]c1cn(N2CCOCC2)n[o+]1 [Molsidomine] | – | 0.63 | 467.403 | – | –
C[C@@H]1C[C@H]2[C@@H]3CCC4=CC(=O)C=C[C@]4(C)[C@@]3(Cl)[C@@H](O)C[C@]2(C)[C@@]1(OC(=O)c1ccco1)C(=O)CCl [Mometasone furoate] | 101.489 | -0.4 | – | – | –
CC[C@@]1([C@H]2O[C@H]([C@H]3O[C@@](O)(CO)[C@H](C)C[C@@H]3C)C[C@H]2C)CC[C@H]([C@@]2(C)CC[C@]3(C[C@H](O)[C@@H](C)[C@@H]([C@H](C)[C@H](OC)[C@@H](C)C(=O)[O-])O3)O2)O1.[Na+] [Monensin sodium salt] | 257.93 | -1.407 | – | – | –
Oc1ccc(OCc2ccccc2)cc1 [Monobenzone] | – | -0.057 | 560.227 | – | –
CC(C)(O)c1ccccc1CC[C@@H](SCC1(CC(=O)O)CC1)c1cccc(/C=C/c2ccc3ccc(Cl)cc3n2)c1 [Montelukast] | 55.3173 | -3.762 | – | – | –

Compound | Ranking score [1] | B-score functional assay | Ranking score [2] | B-score functional assay (B-score) | Ranking score (ranking score beside the functional and binding assay B-scores of the screen)
CCOC(=O)Nc1ccc2c(c1)N(C(=O)CCN1CCOCC1)c1ccccc1S2 [Moricizine hydrochloride] | – | – | 1215.96 | 2.078 | –
CO[C@@]1(NC(=O)C(C(=O)O)c2ccc(O)cc2)C(=O)N2C(C(=O)O)=C(CSc3nnnn3C)CO[C@@H]21 (stereo partly shown) [Moxalactam disodium salt] | – | -0.667 | 623.639 | – | –
CNc1ncnc2c1ncn2[C@@H]1O[C@H](CO)[C@@H](O)[C@H]1O [N6-methyladenosine] | – | 0.107 | 568.625 | – | –
CC(=O)N[C@@H](CC(C)C)C(=O)O [N-Acetyl-L-leucine] | – | -1.591 | 463.866 | – | –
NC(=O)c1ccc[n+]([C@@H]2O[C@H](COP(=O)([O-])OP(=O)(O)OC[C@H]3O[C@@H](n4cnc5c(N)ncnc54)[C@H](O)[C@@H]3O)[C@@H](O)[C@H]2O)c1 [Nadide] | – | 0.371 | 475.971 | – | –
CC1CCc2c(N3CCC(O)CC3)c(F)cc3c(=O)c(C(=O)O)cn1c23 (stereo not shown) [Nadifloxacin] | – | – | 1251.94 | 3.94 | –
CCOc1ccc2ccccc2c1C(=O)N[C@@H]1C(=O)N2[C@@H]1SC(C)(C)[C@@H]2C(=O)O [Nafcillin sodium salt monohydrate] | 223.052 | 0.036 | – | – | –
CCN(CC)CCOC(=O)C(Cc1cccc2ccccc12)CC1CCCO1 (stereo not shown) [Nafronyl oxalate] | – | -1.268 | 488.941 | – | –
CCn1cc(C(=O)[O-])c(=O)c2ccc(C)nc21.[Na+] [Nalidixic acid sodium salt] | – | -0.033 | 500.32 | – | –
C=C1CC[C@@]2(O)[C@H]3Cc4ccc(O)c5c4[C@@]2(CCN3CC2CC2)[C@H]1O5 [Nalmefene hydrochloride] | – | 0.055 | 642.564 | – | –
Cl.O.O.O=C1CC[C@@]2(O)[C@H]3Cc4ccc(O)c5c4[C@@]2(CCN3CC2CC2)[C@H]1O5 [Naltrexone hydrochloride dihydrate] | – | – | – | – | 809.543
c1ccc2c(CC3=NCCN3)cccc2c1 [Naphazoline hydrochloride] | 143.903 | -2.093 | – | – | –
CCc1nn(CCCN2CCN(c3cccc(Cl)c3)CC2)c(=O)n1CCOc1ccccc1 [Nefazodone HCl] | 227.321 | -1.389 | – | – | –
Cc1c(O)cccc1C(=O)N[C@@H](CSc1ccccc1)[C@H](O)CN1C[C@H]2CCCC[C@H]2C[C@H]1C(=O)NC(C)(C)C [Nelfinavir mesylate] | 28.9828 | -3.419 | – | – | –
Cc1ccnc2c1NC(=O)c1cccnc1N2C1CC1 [Nevirapine] | – | -1.052 | 548.284 | – | –
CO[C@]12C[C@@H](COC(=O)c3cncc(Br)c3)CN(C)[C@@H]1Cc1cn(C)c3cccc2c13 [Nicergoline] | – | -0.256 | 615.79 | – | –
O=C(Nc1ccc([N+](=O)[O-])cc1Cl)c1cc(Cl)ccc1O [Niclosamide] | 178.326 | -3.546 | – | – | –
O=C(NCCO[N+](=O)[O-])c1cccnc1 [Nicorandil] | – | – | 1149.4 | 0.976 | –
Cn1c(NCCN(CCO)CCCc2ccc([N+](=O)[O-])cc2)cc(=O)n(C)c1=O [Nifekalant] | – | 0.451 | 503.354 | – | –
Cc1c(NC(=O)c2cccnc2)c(=O)n(-c2ccccc2)n1C [Nifenazone] | – | 0.488 | 560.079 | – | –
COC(=O)C1=C(C)NC(C)=C(C(=O)OCC(C)C)C1c1ccccc1[N+](=O)[O-] (stereo not shown) [Nisoldipine] | 25.6905 | -7.104 | – | – | –
CC(=O)Oc1ccccc1C(=O)Nc1ncc([N+](=O)[O-])s1 [Nitazoxanide] | 189.082 | -2.727 | – | – | –
NC(=O)N/N=C/c1ccc([N+](=O)[O-])o1 [Nitrofural] | – | 0.068 | 535.985 | – | –
C#C[C@]1(O)CC[C@H]2[C@@H]3CCC4=CC(=O)CC[C@@H]4[C@H]3CC[C@@]21C [Norethindrone] | 274.683 | -0.48 | – | – | –
OCCN1CCN(CCCN2c3ccccc3C=Cc3ccccc32)CC1 [Opipramol dihydrochloride] | – | -0.641 | 627.796 | – | –
Cc1ncc([N+](=O)[O-])n1CC(O)CCl (stereo not shown) [Ornidazole] | 260.803 | -1.861 | – | – | –
CCN(CC)CCc1nc(-c2ccccc2)no1.O=C(O)CC(O)(CC(=O)O)C(=O)O [Oxalamine citrate salt] | – | 0.505 | 587.786 | – | –
